Results: patent US11945833B2, “Prodrugs of L-BHDU and methods of treating viral infections” (priority 2021, dated 2024)
Entries after “also recorded” stand apart in the source; their conditions may differ. Where two headings read alike, the source gives them in different places.

Legend:
HSV-1 = assay: Anti-HSV-1 activity in Vero cells; format: cell-based, herpes simplex virus
Protocol: Additionally, all synthesized compounds were also tested in vitro against herpes simplex viruses (HSV-1, oral herpes) in Vero cells, FIG. 8.

VZV [1] = conditions: cited from earlier work; for in vivo reduction in VZV growth compared to ACV and VACV: previous in vivo studies
[2] = molecular target: T1, dihydropyridine dehydrogenase (Homo sapiens, UniProt Q12882); conditions: cited from earlier work
T1 sequence (Q12882 4-1025): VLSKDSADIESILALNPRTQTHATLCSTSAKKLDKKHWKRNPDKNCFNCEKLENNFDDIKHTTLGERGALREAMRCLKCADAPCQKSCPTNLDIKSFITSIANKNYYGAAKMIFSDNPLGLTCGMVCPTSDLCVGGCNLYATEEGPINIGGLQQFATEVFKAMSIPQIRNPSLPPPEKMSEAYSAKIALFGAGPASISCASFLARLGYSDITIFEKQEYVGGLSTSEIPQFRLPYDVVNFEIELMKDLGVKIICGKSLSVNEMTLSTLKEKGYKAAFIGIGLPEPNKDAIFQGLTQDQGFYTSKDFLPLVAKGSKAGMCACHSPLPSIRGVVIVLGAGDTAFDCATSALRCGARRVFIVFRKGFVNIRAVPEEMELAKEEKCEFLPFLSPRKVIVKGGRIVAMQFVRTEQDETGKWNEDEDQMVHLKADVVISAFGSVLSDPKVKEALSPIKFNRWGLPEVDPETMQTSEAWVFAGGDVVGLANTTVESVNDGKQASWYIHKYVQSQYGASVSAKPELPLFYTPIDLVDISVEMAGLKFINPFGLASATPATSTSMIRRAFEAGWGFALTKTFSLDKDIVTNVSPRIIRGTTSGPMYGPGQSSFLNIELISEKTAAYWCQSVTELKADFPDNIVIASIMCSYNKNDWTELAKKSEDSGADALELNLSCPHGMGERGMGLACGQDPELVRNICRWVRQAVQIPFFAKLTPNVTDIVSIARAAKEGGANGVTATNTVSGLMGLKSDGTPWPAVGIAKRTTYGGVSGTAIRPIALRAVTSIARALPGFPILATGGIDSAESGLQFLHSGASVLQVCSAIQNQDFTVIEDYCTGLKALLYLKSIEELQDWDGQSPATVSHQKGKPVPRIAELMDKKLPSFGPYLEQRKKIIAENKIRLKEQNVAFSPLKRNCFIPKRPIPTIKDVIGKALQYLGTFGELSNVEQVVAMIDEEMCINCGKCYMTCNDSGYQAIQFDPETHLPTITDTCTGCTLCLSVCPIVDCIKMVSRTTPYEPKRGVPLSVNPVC

[3] = test system: human fibroblast (HFFs) cells; format: cell-based
Protocol: The cellular toxicity of synthesized analogs was determined on low passage of human fibroblast (HFFs) cells by performing 72 h of neutral red dye uptake and MTT cell proliferation assays.

HSV1 = assay: Topical treatment of HSV1 in human skin explant model; conditions: formulated in cocoa butter
Description: (§1) Each compound was formulated in Cocoa Butter and applied topically. POM was formulated in equimolar concentrations to 0.1% L-BHDU.

VZV-ORF57-Luc [4] = assay: Antiviral activity in ARPE-19 cells infected with VZV-ORF57-Luc; format: cell-based, Varicella-zoster virus
Protocol: To enhance the antiviral activity octadecyloxyethyl-L-BHDU (ODE-L-BHDU, 5) and hexadecyloxypropyl-L-BHDU (HDP-L-BHDU, 6), POM-L-BHDU (8), and POC-L-BDHU (14) (FIGS. 1-3, Schemes 1-3) prodrugs were synthesized with modifications to increase bioavailability and cell penetration. Their antiviral activity was evaluated in ARPE-19 cells infected with VZV-ORF57-Luc, a new reporter virus.

HSV-2 = assay: Anti-HSV-2 activity in Vero cells, bioluminescence imaging; format: cell-based, herpes simplex virus; conditions: listed as L-BDHU
Protocol: HSV-2 yield was determined by bioluminescence imaging. Each point represents the mean±standard deviation of a triplicate sample
Furthermore, antiviral activity of these analogs was tested in vitro against the HSV-2 (genital herpes) in Vero cells using acyclovir as a standard drug reference. […] All other analogs, including L-BDHU, were found ineffective against the HSV-2 (FIG. 11, Table 3). After these findings, it was determined that POM-L-BHDU […] has potential against the HSV-1 & HSV-2. Further in vivo evaluation of POM prodrug of the L-BDHU will confirm activity.

VZV-BAC-Luc = conditions: previous assay, HFFs infected with VZV-BAC-Luc; read-out: EC50 against VZV in HFFs; cited from earlier work
[5] = cited from earlier work
VZV-ORF57-Luc [6] = assay: NuSkin mouse model of VZV replication (adult human skin xenografts), bioluminescence imaging; format: in vivo, Athymic Nude mice; conditions: s.c. once daily days 3-9 post-infection, equimolar to cidofovir 10 mg/kg
Protocol: Mice were treated with vehicle or drugs, and virus yield was measured by bioluminescence imaging. VZV growth rate for individual mice (symbols) and the average for the group (bars) are shown in (A) and (B). […] The overall significance on day 10 post-inoculation (DPI 10) is p=0.0352 (one-way ANOVA). ** p<0.01 for OED-L-BHDU & POM-L-BHDU and (student's t test with Welch's correction). Cidofovir group (i.p.) has an average fold change of 2-5 on DPI 10. (B).

VZV [7] = assay: Topical treatment of VZV in human skin explant model; conditions: formulated in cocoa butter
Description: as §1

[8] = test system: human foreskin fibroblast (HFFS) cells; conditions: cited from earlier work

Row | SMILES | anti-HSV-1 activity (in words) (HSV-1) | EC50 (HSV-1; read-out: EC50 against HSV-1) | dose effective in SCID-Hu mouse model of VZV replication (VZV [1]; human fetal skin) | in vivo reduction in VZV growth compared to ACV and VACV (VZV [1]) | inhibition of dihydropyridine dehydrogenase activity [2] | CC50 [3] | effect on cellular proliferation [3] | prevention of HSV1 spread in adult human skin (HSV1) | CC50 (Vero Cells) | EC50 (VZV-ORF57-Luc [4]; read-out: EC50 against VZV in ARPE-19s) | EC50 (VZV-ORF57-Luc [4]; read-out: EC50 against VZV-ORF57-Luc) | anti-HSV-2 activity (in words) (HSV-2) | EC50 (VZV-BAC-Luc) | levels in mouse organs [5] | well tolerated dose ([5]; mouse, in vivo) | in vivo antiviral activity against VZV (in words) (VZV-ORF57-Luc [6]) | prevention of VZV spread in adult human skin (VZV [7]) | CC50 [8]
1 | O=c1[nH]c(=O)n([C@@H]2CO[C@H](CO)O2)cc1/C=C/Br [L-BHDU] | good activity | 7 nM | 15 mg/kg | significant reduction in VZV growth | does not inhibit | > 100000 nM | did not affect cellular proliferation | highly effective | > 100000 nM | 22 nM | 22 nM | ineffective; also recorded: inactive | 220 nM | reached high levels in mouse organs but not in the brain | up to 150 mg/kg | ineffective | highly effective | –
2 | CC(C)C(N)C(=O)OCC1OCC(n2cc(/C=C/Br)c(=O)[nH]c2=O)O1 [L-valyl-L-BHDU] | – | – | – | significant reduction in VZV growth | – | – | – | – | – | – | – | – | 30 nM | – | – | – | – | 200000 nM
